# Measured values reported in patent US9480627B2, “Long term bacteriostatic compounds and their use in restorative dental materials” (priority 2010, dated 2016).
# Test: Storage stability in sealed container in 37 C oven for nine months
# Conditions: nine month storage period
# Description: These ingredients were blended together until homogenous and were allowed to remain in a sealed container in a 37 C oven for nine months.
substance,measurement,value
Zinc pyrithione,stability with acrylic dental adhesives (premature cure on storage),does not cure
